The values that follow come from patent US7556796B2, “Directed complementation” (AVEO Pharmaceuticals, Inc., priority 2005, dated 2009).

Data set [1] relates to propagated tumors from Her2-dependent inducible spontaneous breast tumors. Nature of the data set: Drug response assay with propagated Her2-dependent primary breast tumors. In kind it is in vivo, mouse. The settings on record: 15 or 30 mg/kg, three doses at 5-day intervals, one week after last dosing. The method, then: From each primary tumor, about 0.1 million cells/site were injected sub-cutaneously into 30 sites on immunocompromised mice, which were then fed with doxycycline water. Each mouse received two injections, one on each side of its back (subcutaneous). Thus, one primary tumor was expanded into 30 propagated tumors onto 15 mice, each of the mice developing two tumors on its back. Out of these thirty tumors, 10 tumor-bearing mice were treated with vehicle (5 parts Tween-80, 5 parts absolute ethyl alcohol, 90 parts 5% dextrose), another 10 tumor bearing-mice were treated with 15 mg/kg docetaxel (Biochemika, cat. No. 01885), and the remaining 10 tumor-bearing mice were treated with 30 mg/kg docetaxel (which was already determined to be near MTD for this drug). In total, five primary tumors were expanded to 150 tumors in 75 animals.
When the tumors reached approximately 5 mm^3 in size, the treatments were begun. The animals were given three doses with 5-day intervals. The experiment was terminated one week after the final dosing. Among propagated tumors derived from any given primary tumor, uniformity in terms of latency, growth rate and drug response was expected (intra-tumoral uniformity). In contrast, among propagated tumors derived from different primary tumors variation in terms of growth rate, latency and drug response was expected (inter-tumoral variation). […]

Data set [2] in a line: Maximum tolerated dose (previously determined). The following applies: mouse, in vivo; already determined to be near MTD for this drug.

For `CC(=O)O[C@@]12CO[C@@H]1C[C@H](O)[C@@]1(C)C(=O)[C@H](O)C3=C(C)[C@@H](OC(=O)[C@H](O)[C@@H](NC(=O)OC(C)(C)C)c4ccccc4)C[C@@](O)([C@@H](OC(=O)c4ccccc4)[C@H]21)C3(C)C` [docetaxel], the “drug response (tumor size vs vehicle)” value was “significant reduction in tumor growth” in data set [1] (propagated tumors from one of the five primary tumors) and “did not show any effect” in data set [1] (propagated tumors from the remaining four of five primary tumors). Moreover, the MTD (usually the highest dose tested that stayed within the study's limit of toxicity) in data set [2] is around 30 mg/kg.
